Columns and labels:
Clostridium ljungdahlii = experiment: Syngas fermentation in stirred tank bioreactor, effect of vitamin feed rates on specific ethanol productivity; assay type: cell-based; conditions: for effect of increasing feed rate on specific ethanol productivity: Experiment 4, vitamin B5 feed held constant below about 30 ug/g of cells, vitamin B1 and B7 feeds increased
Description: A synthesis gas containing CO. CO2 and H2 was continuously introduced into a stirred tank bioreactor containing Clostridium ljungdahlii (Experiments 1-4), along with a liquid medium containing trace metals and salts as described herein. Vitamins were provided using dedicated feed lines. A New Brunswick Bioflow reactor containing the fermentation medium was started with actively growing Clostridium ljungdahlii (Experiments 1-4). The rate of agitation of the reactor was set to 800 rpm at the start of the experiment and this agitation rate was maintained throughout the experiment. Feed gas flow to the reactor was increased based on the H2 and CO uptake of the culture. Temperature in the bioreactor was maintained at about 38° C. throughout the experiment. Samples of gas feed into the bioreactor and off-gas from the bioreactor and fermentation broth in the bioreactor were taken at intervals, for example feed gas, off-gas and fermentation broth were sampled about daily, once two hours and once four hours respectively. Above samples were analyzed for consumption or production of various gas components, broth acetic acid concentration, broth ethanol concentration and the optical density (cell density) of the culture. The unaroused volume of the reactor was maintained between 3000 to 3250 ml throughout the experiment. Further, the gas flow to the reactor was maintained at required gas flow rates by using a mass flow controller. The feed […] composition was 23% H2, 35% CO, 29% CO2 and 13% N2. In the following reactor runs, vitamins biotin, thiamine and pantothenate were feed to the reactor using a dedicated stream. Steady state conditions were maintained for a period of time greater than 5 times the cell retention time. Cell mass was essentially replaced 5 times before data collection phase started. After data set was collected, vitamin feed rate was adjusted, adjustment phase was repeated, and next data set was collected. Adjustment phase refers to an amount of time necessary for the culture to equilibrate to a change. In this experiment culture was allowed at least a 3-day adjustment phase. A cell recycle system (CRS) was attached to the reactor before the start of the experiment. During the experiment, medium feed rate was 3.0 to 6.0 ml/min, and through the CRS, 0-5 ml/min permeate was drawn out from the reactor. The following tables describe the vitamin feed rates and specific ethanol productivity (SEP).

[1] = tested on: Clostridium autoethanogenum; experiment: Fermentation trials, effect of vitamin feed rates and low cell retention time on specific ethanol productivity; assay type: cell-based
Description: Fermentation trials were conducted with Clostridium autoethanogenum with Biotin (B7) and Thiamine (B1) feeds held at lower base levels with increasing Pantothenate (B5) Feeds.

| Compound | SEP (specific ethanol productivity) (Clostridium ljungdahlii; Experiment 3, feeds (μg/g cells produced): pantothenate 19.33, biotin 17.76, thiamine 13.36) [g/day/g cells] | SEP (specific ethanol productivity) (Clostridium ljungdahlii; Experiment 3, feeds (μg/g cells produced): pantothenate 37.91, biotin 17.42, thiamine 13.10) [g/day/g cells] | SEP (specific ethanol productivity) (Clostridium ljungdahlii; Experiment 3, feeds (μg/g cells produced): pantothenate 55.49, biotin 17.00, thiamine 12.79) [g/day/g cells] | SEP (specific ethanol productivity) (Clostridium ljungdahlii; Experiment 3, feeds (μg/g cells produced): pantothenate 72.34, biotin 16.62, thiamine 12.50) [g/day/g cells] | SEP (specific ethanol productivity) (Clostridium ljungdahlii; Experiment 3, feeds (μg/g cells produced): pantothenate 108.13, biotin 19.87, thiamine 14.95) [g/day/g cells] | SEP (specific ethanol productivity) (Clostridium ljungdahlii; Experiment 3, feeds (μg/g cells produced): pantothenate 125.67, biotin 20.55, thiamine 14.76) [g/day/g cells] | specific ethanol productivity increase (Clostridium ljungdahlii; Experiment 3, vitamin B5 feed from about 20 to about 108 ug/g of cells produced, vitamin B1 and B7 feeds under 20 ug/g) | SEP (specific ethanol productivity) ([1]; feeds (μg/g cells produced): pantothenate 48.47, biotin 29.54, thiamine 23.10, cell retention time 13.45 hrs) [g/day/g cells] | SEP (specific ethanol productivity) ([1]; feeds (μg/g cells produced): pantothenate 58.08, biotin 26.65, thiamine 20.84, cell retention time 13.27 hrs) [g/day/g cells] | SEP (specific ethanol productivity) ([1]; feeds (μg/g cells produced): pantothenate 62.90, biotin 23.04, thiamine 18.01, cell retention time 12.44 hrs) [g/day/g cells] | SEP (specific ethanol productivity) ([1]; feeds (μg/g cells produced): pantothenate 68.78, biotin 25.19, thiamine 19.70, cell retention time 11.36 hrs) [g/day/g cells] | SEP (specific ethanol productivity) ([1]; feeds (μg/g cells produced): pantothenate 70.67, biotin 21.62, thiamine 16.91, cell retention time 11.22 hrs) [g/day/g cells] | SEP (specific ethanol productivity) ([1]; feeds (μg/g cells produced): pantothenate 81.90, biotin 18.79, thiamine 14.69, cell retention time 9.81 hrs) [g/day/g cells] | specific ethanol productivity increase ([1]; vitamin B5 feed from about 48 to about 82 ug/g of cells produced, B1 and B7 under 30 then under 20 ug/g, cell retention time from about 13.5 to 9.8 hours) | effect of increasing feed rate on specific ethanol productivity (Clostridium ljungdahlii) |
| --- | --- | --- | --- | --- | --- | --- | --- | --- | --- | --- | --- | --- | --- | --- | --- |
| CC(C)(CO)[C@@H](O)C(=O)NCCC(=O)O [Pantothenate, pantothenate] | 7.95 | 8.64 | 10.03 | 10.33 | 11.25 | 11.15 | about 42% | 8.08 | 8.24 | 8.51 | 9.39 | 9.70 | 9.98 | about 24% |  |
| Cc1ncc(C[n+]2csc(CCO)c2C)c(N)n1 [Thiamine, thiamine] |  |  |  |  |  |  |  |  |  |  |  |  |  |  | did not increase specific ethanol productivity |
| O=C(O)CCCC[C@@H]1SC[C@@H]2NC(=O)N[C@@H]21 [Biotin, biotin] |  |  |  |  |  |  |  |  |  |  |  |  |  |  | did not increase specific ethanol productivity |

Reference: patent US20220177931A1, “PROCESS AND COMPOSITION FOR CONTROLLING ETHANOL PRODUCTION” (priority 2020, published 2022)
